Data published in patent US11661398B2, “Cellular transport system for transferring a sulfonic acid construct carrying a cargo into the cytoplasm of a cell” (Scientist of Fortune, S.A., priority 2017, dated 2023).
Entries after “also recorded” stand apart in the source; their conditions may differ. Structures can show the parent of a compound that is named as a salt.

Key:
[1] = molecular target: PnGGT ΔN24 (Pseudomonas nitroreducens, UniProt E0D5C2); assay: Kinetic measurements with purified PnGGT ΔN24; type: biochemical
Description: For the experiments relating to the sulfonate based synthetic transport system, purification of PnGGT ΔN24 and PnGGT ΔN24 D405N containing an N-terminal 6×His-tag was performed according to previous reports (Van Dyke et al., 1992) using Ni-NTA Superflow (Qiagen, Hilden, Germany). For kinetic studies, PnGGT variants were purified with the aid of the 6×His-tag located at the N-terminal end of the large subunit following the same procedure. To exchange the buffer, purified proteins were dialyzed against 50 mM Tris/HCl (pH 7.0).
To determine the kinetic parameters of PnGGT ΔN24 and PnGGT ΔN24 D405N the purified enzymes were preincubated in 50 mM Tris-HCl (pH 9.0). To start the reaction, varying concentrations of the substrates L-glutamic acid γ-(3-carboxy-4-nitroanilide) or sulfobutanoyl-p-nitroanilide were added to the mixtures. The results were evaluated using GraphPad Prism (GraphPad Software, La Jolla, Calif., USA).

[2] = molecular target: T1, PnGGT ΔN24 D405N (Pseudomonas nitroreducens, UniProt E0D5C2, D405N); assay: Colorimetric GGT assay in whole cell lysates / cell free extracts; type: biochemical; conditions: whole cell lysate, 4 mM substrate, 50 mM Tris-HCl (pH 9.0), 410 nm
T1 sequence (E0D5C2 with tags, fused parts or gaps D405N): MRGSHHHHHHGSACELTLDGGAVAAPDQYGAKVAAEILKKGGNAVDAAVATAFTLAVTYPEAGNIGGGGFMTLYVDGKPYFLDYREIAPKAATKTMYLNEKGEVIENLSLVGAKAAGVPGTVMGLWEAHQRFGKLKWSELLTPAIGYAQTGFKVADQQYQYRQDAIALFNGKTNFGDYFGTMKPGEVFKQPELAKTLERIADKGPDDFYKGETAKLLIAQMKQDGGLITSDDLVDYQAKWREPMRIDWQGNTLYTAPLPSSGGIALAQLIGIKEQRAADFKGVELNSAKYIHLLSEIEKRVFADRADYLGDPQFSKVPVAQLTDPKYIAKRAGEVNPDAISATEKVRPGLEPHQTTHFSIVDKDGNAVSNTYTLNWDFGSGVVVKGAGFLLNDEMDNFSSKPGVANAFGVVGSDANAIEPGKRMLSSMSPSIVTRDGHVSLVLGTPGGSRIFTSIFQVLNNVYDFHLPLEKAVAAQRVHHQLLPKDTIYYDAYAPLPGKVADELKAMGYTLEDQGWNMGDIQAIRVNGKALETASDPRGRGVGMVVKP
Excerpt: FIG. 22: Identification of GGT* activity and refactoring of the ssuABC operon. […] The release of 4-nitroaniline was quantified by measuring the absorption at 410 nm. (b) Plasmid map of the three-dimensional RBS-library for refactoring the ssuABC operon using 144 RBS variants per gene. RBS library sequences are underlined. Arrows point towards the final RBS sequences observed in plasmid pSsuABC. […] (e) Growth of strain TK088[pSsuABC]transformed with the empty vector pACT3 (black circles) or plasmid pPnGGT* (white circles) in liquid MS minimal medium supplemented with 0.5% glucose, 1 mM MgSO4, 0.4 mM L-leucine, 0.5 mM IPTG, 100 ng ml^−1 aTc and 0.5 mM sulfobutanoyl-L-histidine. Bars and dots from panels (a), (d) and (e) represent the average of three independent measurements with standard deviations shown as error bars.
To test for the desired activity a colorimetric enzyme assay was chosen and the substrate sulfobutanoyl-p-nitroanilide was synthesized for this purpose. Hydrolysis of this colorless substrate by a GGT variant into sulfobutanoic acid and the yellow dye 4-nitroaniline can be quantified photometrically at 410 nm. For that, cytoplasmic GGT variants containing an N-terminal 6×His-tag were first expressed from E. coli (EcGGT ΔN24) and Pseudomonas nitroreducens (PnGGT ΔN24), as well as EcGGT ΔN24 D433N and the corresponding mutant variant PnGGT ΔN24 D405N. […]

[3] = tested on: PnGGT* D385Y; assay: GGT* activity assay with cell free extracts of PnGGT* mutant variants; type: biochemical, Pseudomonas nitroreducens; conditions: 2 mM substrate
Description: (§1) FIG. 29. Expression analysis of selected PnGGT* mutant variants. Strain TK018 was transformed with the empty vector pACT3, the parent plasmid pPnGGT* or selected mutant variants thereof and grown in LB medium to early exponential phase. Synthesis of the PnGGT* variants was induced for 4 hours by adding 0.5 mM IPTG to the culture. (a) GGT* activity assays with cell free extracts and 2 mM of the substrate sulfobutanoyl-p-nitroanilide. […] Bars represent the average of three independent measurements with standard deviations shown as error bars. (b) SDS-PAGE of cell free extracts to confirm loading of similar protein amounts. (c) Western Blot of cell free extracts with an antibody directed against the large subunit of PnGGT* (38.5 kDa). Mutant variants Y167V Q168P and Y167H Q168G were synthesized slightly less efficiently than PnGGT*. All other mutant variants were synthesized with similar efficiency as PnGGT*.

[4] = tested on: PnGGT* P505T; assay: as above; type: biochemical, Pseudomonas nitroreducens; conditions: 2 mM substrate, sodium salt
Description: as §1

[5] = tested on: TK082; assay: In vivo hydrolysis of sulfobutanoyl-p-nitroanilide and sulfobutanoyl-AMC; type: cell-based, E. coli; conditions: 0.5 mM compound, different plasmid combinations
Description: Strain TK082 was transformed with plasmids as indicated in the text and grown at 37° C. in MS minimal medium supplemented with 0.5% glucose, 1 mM MgSO4 and 0.4 mM L-leucine to an OD600 of 0.5. At that stage, the synthesis of PnGGT* and/or SsuABC was induced for 2 hours by adding 0.5 mM IPTG and 100 ng mL^−1 aTc. Following this synthesis period, cells were washed in the same medium to remove proteins that had been released into the medium by cell lysis. After an additional centrifugation step, cells were resuspended in MS minimal medium supplemented with 0.5% glucose, 1 mM MgSO4, 0.4 mM L-leucine, 0.5 mM IPTG, 100 ng mL^−1 aTc and 0.5 mM sulfobutanoyl-p-nitroanilide or sulfobutanoyl-AMC (see below for description of synthesis) and incubated in a Tecan Infinite 200 Pro plate reader at 37° C. To monitor cell density and the release of 4-nitroaniline, absorbance was constantly measured at 600 nm and 410 nm. The release of AMC was monitored by measuring the fluorescence at λex=350 nm and λem=450 nm. To determine the influence of competition for the sulfonate transporter SsuABC, different concentrations of pentanesulfonate (Sigma Aldrich) were added to the medium.

**Q.** What does the source list for `O=C(CCCS(=O)(=O)O)Nc1ccc([N+](=O)[O-])cc1` [sodium salt]?
**A.** hydrolysis of substrate by purified enzyme [1]: no detectable activity; hydrolysis of substrate [2]: significantly higher activity than EcGGT ΔN24 D433N; activity towards substrate [3]: low activity; activity towards substrate compared to PnGGT* [4]: elevated activity; also recorded: slightly elevated in vitro activity; in vivo release of 4-nitroaniline from the compound [5]: only released from the SBA moiety when SsuABC and PnGGT* were simultaneously synthesized
